Assay results from ChEMBL document CHEMBL3351363 (J Med Chem, 2014).

Experiments:
[1] = molecular target: T1, Muscarinic acetylcholine receptor M5 (Homo sapiens, UniProt P08912); assay: Displacement of [3H]NMS from human M5 receptor expressed in CHO cells by microplate scintillation counting based radioligand binding assay; type: cell-based
T1 sequence (P08912 whole entry): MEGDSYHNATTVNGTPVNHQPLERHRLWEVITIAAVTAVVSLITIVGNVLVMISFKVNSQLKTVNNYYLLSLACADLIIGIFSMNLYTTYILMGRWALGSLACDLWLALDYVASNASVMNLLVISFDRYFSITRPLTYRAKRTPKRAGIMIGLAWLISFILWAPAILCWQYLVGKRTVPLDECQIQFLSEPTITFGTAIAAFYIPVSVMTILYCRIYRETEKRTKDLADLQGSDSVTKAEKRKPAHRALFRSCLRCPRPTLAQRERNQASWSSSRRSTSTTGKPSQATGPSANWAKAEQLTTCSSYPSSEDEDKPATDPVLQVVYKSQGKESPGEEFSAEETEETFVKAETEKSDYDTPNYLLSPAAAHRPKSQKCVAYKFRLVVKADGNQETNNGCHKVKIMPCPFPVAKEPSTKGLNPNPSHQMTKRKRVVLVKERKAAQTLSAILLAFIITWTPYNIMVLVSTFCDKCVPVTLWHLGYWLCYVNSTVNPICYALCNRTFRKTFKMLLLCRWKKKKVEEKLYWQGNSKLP

[2] = molecular target: T2, Muscarinic acetylcholine receptor M1 (Homo sapiens, UniProt P11229); assay: Agonist activity at human M1 receptor expressed in HEK293T cells by BRET based Gq protein engagement assay
T2 sequence (P11229 whole entry): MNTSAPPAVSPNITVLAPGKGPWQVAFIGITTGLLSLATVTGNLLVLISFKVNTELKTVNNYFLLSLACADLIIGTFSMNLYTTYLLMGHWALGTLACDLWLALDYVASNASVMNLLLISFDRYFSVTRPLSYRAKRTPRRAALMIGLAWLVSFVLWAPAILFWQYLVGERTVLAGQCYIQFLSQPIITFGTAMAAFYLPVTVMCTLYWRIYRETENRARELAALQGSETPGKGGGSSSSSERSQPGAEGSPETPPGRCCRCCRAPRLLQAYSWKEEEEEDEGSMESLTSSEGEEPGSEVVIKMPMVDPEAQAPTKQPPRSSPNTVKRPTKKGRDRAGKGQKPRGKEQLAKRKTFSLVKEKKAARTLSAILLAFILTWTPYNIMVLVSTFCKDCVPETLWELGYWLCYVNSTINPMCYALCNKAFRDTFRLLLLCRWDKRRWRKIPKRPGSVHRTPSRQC

[3] = molecular target: T2, Muscarinic acetylcholine receptor M1; assay: Positive modulatory activity at human M1 receptor expressed in HEK293T cells assessed as effect on carbachol-induced response by BRET based Gq protein engagement assay; type: cell-based, HEK-293T
[4] = molecular target: T2, Muscarinic acetylcholine receptor M1; assay: Agonist activity at human M1 receptor expressed in HEK293T cells by BRET based Gq protein activation assay; type: cell-based, HEK-293T
[5] = molecular target: T3, Muscarinic acetylcholine receptor M1 (Homo sapiens) (UniProt P11229); assay: Agonist activity at human M1 receptor expressed in HEK293T cells by BRET based Gq protein activation assay relative to carbachol; type: cell-based; conditions: HEK-293T
T3 sequence (whole entry): T2 sequence (P11229 whole entry)

[6] = molecular target: T2, Muscarinic acetylcholine receptor M1; assay: Positive modulatory activity at human M1 receptor expressed in HEK293T cells assessed as effect on carbachol-induced response by BRET based Gq protein activation assay; type: cell-based, HEK-293T
[7] = molecular target: T3, Muscarinic acetylcholine receptor M1 (Homo sapiens); assay: Positive modulatory activity at human M1 receptor expressed in HEK293T cells assessed as effect on carbachol-induced response by BRET based Gq protein activation assay relative to untreated control; type: cell-based; conditions: HEK-293T
[8] = molecular target: T4, Muscarinic acetylcholine receptor M4 (Homo sapiens) (UniProt P08173); assay: Antagonist activity at human M4 receptor expressed in HEK293T cells assessed as inhibition of carbachol-induced response by BRET based Gq protein engagement assay relative to untreated control; type: cell-based; conditions: HEK-293T
T4 sequence (whole entry): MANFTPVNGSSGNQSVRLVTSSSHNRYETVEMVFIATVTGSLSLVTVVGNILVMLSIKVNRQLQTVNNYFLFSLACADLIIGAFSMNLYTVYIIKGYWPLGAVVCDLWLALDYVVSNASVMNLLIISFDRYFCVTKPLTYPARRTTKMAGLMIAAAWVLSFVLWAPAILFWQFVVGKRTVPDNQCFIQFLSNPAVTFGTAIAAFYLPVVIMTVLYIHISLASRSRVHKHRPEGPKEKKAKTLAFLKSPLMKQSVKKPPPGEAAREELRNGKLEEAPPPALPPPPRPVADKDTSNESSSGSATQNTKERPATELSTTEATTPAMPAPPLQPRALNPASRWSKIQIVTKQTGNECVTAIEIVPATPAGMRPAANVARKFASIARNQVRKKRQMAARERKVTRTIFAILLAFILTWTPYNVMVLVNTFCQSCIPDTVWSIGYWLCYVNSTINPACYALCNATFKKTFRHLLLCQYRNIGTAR

[9] = molecular target: T4, Muscarinic acetylcholine receptor M4 (Homo sapiens); assay: Antagonist activity at human M4 receptor expressed in HEK293T cells assessed as inhibition of xanomeline-induced response by BRET based Gq protein engagement assay relative to untreated control; type: cell-based; conditions: HEK-293T
[10] = molecular target: T5, Muscarinic acetylcholine receptor M4 (Homo sapiens, UniProt P08173); assay: Agonist activity at human M4 receptor expressed in HEK293T cells by BRET based Gq protein activation assay
T5 sequence (P08173 whole entry): T4 sequence (whole entry)

[11] = molecular target: T2, Muscarinic acetylcholine receptor M1
[12] = molecular target: T2, Muscarinic acetylcholine receptor M1; remark: listed apart in the source
[13] = molecular target: T5, Muscarinic acetylcholine receptor M4
[14] = molecular target: T4, Muscarinic acetylcholine receptor M4 (Homo sapiens); assay: Antagonist activity at human M4 receptor expressed in HEK293T cells assessed as inhibition of carbachol-induced response by BRET based Gi protein activation assay relative to untreated control; conditions: HEK-293T

CCCCC1CCN(CCCN2C(=O)CCc3ccccc32)CC1
Ki [1]: 5.37 µM | EC50 [2]: 0.0603 µM | EC50 [3]: 0.0347 µM | EC50 [4]: 0.102 µM | Emax [5]: 57% | EC50 [6]: 0.191 µM | Emax [7]: 79% | Imax [8]: 86% | Imax [9]: 78% | EC50 [10]: 0.275 µM | EC50 [11]: 0.12 µM | EC50 [12]: 0.263 µM | IC50 [13]: 47.9 µM | Imax [14]: 55%
